Experimental findings from ChEMBL document CHEMBL1133610, “GRID/CPCA: a new computational tool to design selective ligands” (J Med Chem, 2000) are described below.

Where only a bound is given, the exact number is not on record here.

Broadly, the IC50 is the concentration that gives 50% inhibition. Low values mean inhibition by little substance, high ones a need for much substance. In general, Ki refers to a dissociation constant, usually derived from enzyme kinetics or from competition with a known ligand. A higher Ki goes with weaker binding.

Assay [1] has as its target T1, Coagulation factor X (Homo sapiens, UniProt P00742). Description: Inhibitory activity against human Coagulation factor Xa.
Another assay addresses Prothrombin (Homo sapiens, UniProt P00734). The experiment in a line: Inhibitory activity against human thrombin.
Assay [2] deals with T1, Coagulation factor X. The experiment in a line: Inhibitory Activity against Coagulation factor X.
A further assay concerns the target Serine protease 1 (Homo sapiens, UniProt P07477). The experiment in a line: Inhibitory Activity against Trypsin.

T1 sequence (P00742 41-179 limits assumed): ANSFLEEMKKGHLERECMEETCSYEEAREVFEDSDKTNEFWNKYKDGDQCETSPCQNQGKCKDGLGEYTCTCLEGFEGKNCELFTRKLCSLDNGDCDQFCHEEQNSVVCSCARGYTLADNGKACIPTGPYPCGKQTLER
T1 sequence (P00742 235-488 limits assumed): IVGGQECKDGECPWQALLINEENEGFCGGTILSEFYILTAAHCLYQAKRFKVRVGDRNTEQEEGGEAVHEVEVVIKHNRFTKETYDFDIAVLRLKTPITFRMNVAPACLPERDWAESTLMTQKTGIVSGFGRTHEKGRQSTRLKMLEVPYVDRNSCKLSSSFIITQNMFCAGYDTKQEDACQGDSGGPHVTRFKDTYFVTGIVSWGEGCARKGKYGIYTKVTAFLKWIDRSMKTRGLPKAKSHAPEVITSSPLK
Chain of Serine protease 1 (P07477 whole entry): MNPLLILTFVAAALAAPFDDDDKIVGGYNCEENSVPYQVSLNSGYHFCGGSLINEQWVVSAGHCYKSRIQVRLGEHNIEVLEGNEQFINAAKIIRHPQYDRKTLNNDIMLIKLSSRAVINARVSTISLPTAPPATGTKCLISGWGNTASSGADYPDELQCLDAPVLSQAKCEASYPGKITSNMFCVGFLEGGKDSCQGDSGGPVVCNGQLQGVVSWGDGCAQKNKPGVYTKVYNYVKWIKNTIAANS

As for `N=C(N)c1cccc(-c2cccc([C@H](CCCNc3ccncc3)C(=O)O)c2)c1`, the figures for the IC50 on Coagulation factor X [1] and at Prothrombin were 0.00272 µM and greater than 100 µM, respectively.
For `CC1CNc2c(cccc2S(=O)(=O)N[C@@H](CCCN=C(N)N)C(=O)N2CC[C@@H](C)CC2C(=O)O)C1` (some centres undefined), the figures for the Ki on Coagulation factor X [2] and on Serine protease 1 were 210 µM and 5 µM, respectively.
